Activity calls are given as the source filed them. The calls are words filed in the database; no cut-off is given here.
Experiments:
Format in all cases: functional
[1] = test system: MCF7; test: Estrogenic potency in human MCF7 BUS cells assessed as drug level inducing maximal cell proliferation
[2] = test system: MCF7; test: Proliferative effect in human MCF7 BUS cells assessed as ratio of increase in cell number in drug treated to control
[3] = test system: MCF7; test: Proliferative effect in human MCF7 BUS cells assessed as increase in cell number relative to 17-beta estradiol; design: concentration or dose not given beside the values
[4] = test system: MCF7; test: Proliferative potency in human MCF7 BUS cells assessed as induction of maximal cell proliferation relative to 17-beta estradiol

Compound | MED [1] [µM] | Ratio [2] | Activity [3] [%] | Activity [4] [%] | Activity [2]
C[C@@H]([C@H](C)Cc1ccc2c(c1)OCO2)[C@@H](O)c1ccc2c(c1)OCO2 [OLEIFERIN C] | 10 | 4.4 | 47.8 | 0.01 | 
Oc1ccc2c(c1)O[C@H](c1ccc3c(c1)OCO3)CC2 | 10 | 5.7 | 67.1 | 0.01 | 
C[C@H](Cc1ccc2c(c1)OCO2)[C@H](C)C(=O)c1ccc(O)cc1 | 10 | 4.51 | 50.1 | 0.01 | 
COc1ccc([C@H]2Oc3c(OC)cc(C=O)cc3[C@@H]2C)cc1O [PERSEAL F] |  |  | 0 | 0 | inactive
COc1cc(C[C@H](C)[C@H](C)Cc2ccc3c(c2)OCO3)ccc1O [AUSTROBAILIGNAN 6] |  |  | 0 | 0 | inactive
C/C(=C/c1ccc(O)cc1)C(C)Cc1ccc(O)cc1 (stereo unspecified) | 10 | 6.2 | 73.7 | 0.01 | 
C[C@H](Cc1ccc2c(c1)OCO2)[C@@H](C)Cc1ccc2c(c1)OCO2 [MACHILIN A] | 10 | 1.9 | 13.5 | 0.01 | 
COc1ccc(CCC(=O)c2c(O)cc(O)cc2OC)cc1 | 10 | 6.6 | 80.7 | 0.01 | 
C[C@@H]1[C@@H](c2ccc(O)cc2)c2cc(O)ccc2C[C@H]1C | 10 | 6.4 | 77.8 | 0.01 | 
CCO[C@@H](c1ccc2c(c1)OCO2)[C@@H](C)[C@H](C)Cc1ccc2c(c1)OCO2 | 10 | 6.9 | 84 | 0.01 | 
C[C@@H]([C@H](C)Cc1ccc2c(c1)OCO2)[C@H](O)c1ccc2c(c1)OCO2 |  |  | 0 | 0 | inactive
C[C@H](Cc1ccc(O)cc1)[C@H](C)Cc1ccc2c(c1)OCO2 | 10 | 5.8 | 68.7 | 0.01 | 
COc1cc(C(=O)[C@@H](C)[C@H](C)Cc2ccc3c(c2)OCO3)ccc1O [OLEIFERIN D] | 10 | 4 | 42.8 | 0.01 | 
C[C@@H]1[C@@H](c2ccc3c(c2)OCO3)c2cc3c(cc2C[C@H]1C)OCO3 [CAGAYANINE] | 10 | 2.2 | 17.9 | 0.01 | 
C/C=C/c1cc(OC)c2c(c1)[C@@H](C)[C@H](c1ccc3c(c1)OCO3)O2 [LICARINE B] |  |  | 0 | 0 | inactive
C/C=C/c1cc(OC)c2c(c1)[C@@H](C)[C@H](c1ccc(O)c(OC)c1)O2 [LICARINE A] | 10 | 2.8 | 26.4 | 0.01 | 
C[C@]12CC[C@@H]3c4ccc(O)cc4CC[C@H]3[C@@H]1CC[C@@H]2O [ESTRADIOL] | 0.001 | 8 |  |  | 
COc1cc(O)cc(O)c1C(=O)CCc1ccc2c(c1)OCO2 | 10 | 2.5 | 22.1 | 0.01 | 

From ChEMBL document CHEMBL1143987, “Structure and estrogenic activity of new lignans from Iryanthera lancifolia” (2008)
